In experiment [1] the target is T1, prostacyclin synthetase (Sus scrofa, UniProt A0A5G2QT35).
T1 construct: Pig aorta microsomes; from tissue; host or cells: pig aorta (microsomes)
T1 sequence (A0A5G2QT35 1-497): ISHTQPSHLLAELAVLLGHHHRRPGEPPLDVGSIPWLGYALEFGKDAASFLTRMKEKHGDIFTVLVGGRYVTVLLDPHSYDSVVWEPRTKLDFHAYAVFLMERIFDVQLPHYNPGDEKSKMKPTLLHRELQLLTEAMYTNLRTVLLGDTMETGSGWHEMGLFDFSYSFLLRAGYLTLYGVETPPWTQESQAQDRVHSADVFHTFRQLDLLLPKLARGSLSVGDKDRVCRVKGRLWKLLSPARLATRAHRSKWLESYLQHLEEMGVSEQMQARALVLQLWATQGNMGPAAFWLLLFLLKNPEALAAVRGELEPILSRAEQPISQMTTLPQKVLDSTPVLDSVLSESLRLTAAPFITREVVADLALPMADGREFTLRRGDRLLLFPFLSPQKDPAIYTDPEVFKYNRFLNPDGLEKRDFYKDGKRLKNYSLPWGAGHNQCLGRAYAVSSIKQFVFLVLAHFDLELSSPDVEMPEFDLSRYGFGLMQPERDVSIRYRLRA
As to conditions: pre-incubation of the enzyme; cited from earlier work.

The target in the next experiment is T2, thromboxane synthetase (Homo sapiens, UniProt P24557).
T2 construct: human platelet microsomes; from tissue; host or cells: human blood platelets (microsomes, indomethacin pre-treated)
T2 sequence (P24557 1-533): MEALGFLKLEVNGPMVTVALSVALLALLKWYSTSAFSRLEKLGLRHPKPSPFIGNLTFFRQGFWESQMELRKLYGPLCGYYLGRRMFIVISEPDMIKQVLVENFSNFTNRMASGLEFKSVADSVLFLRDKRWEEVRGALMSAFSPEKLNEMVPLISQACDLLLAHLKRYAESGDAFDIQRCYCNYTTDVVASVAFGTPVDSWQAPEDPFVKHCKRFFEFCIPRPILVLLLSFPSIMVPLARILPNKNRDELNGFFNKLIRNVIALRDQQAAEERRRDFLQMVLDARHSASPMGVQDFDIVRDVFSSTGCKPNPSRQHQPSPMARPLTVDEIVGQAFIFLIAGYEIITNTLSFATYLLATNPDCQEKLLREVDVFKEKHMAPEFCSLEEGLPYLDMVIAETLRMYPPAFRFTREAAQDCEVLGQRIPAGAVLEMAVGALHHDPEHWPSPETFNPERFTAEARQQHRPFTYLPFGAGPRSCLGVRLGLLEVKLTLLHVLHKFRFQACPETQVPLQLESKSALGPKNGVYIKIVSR
Nature of the experiment: Thromboxane A2 (TxA2) synthetase inhibition, human platelet microsomes, rabbit aorta bioassay. Format: biochemical. The note with it: test compound pre-incubated with enzyme for 5 minutes, read-out: Molar concentration causing 50% inhibition of thromboxane synthetase. On the procedure:
3. Thromboxane A2 (TxA2) Synthetase
Indomethacin pre-treated human platelet microsomes (Science, 1976, 193, 163) are incubated (2 min.: 0° C.) with PGH2 (produced as in 1) and aliquots of the reaction mixture superfused over two rabbit aorta spirals which are separated by a delay coil (2 min.). The latter is required to allow the selective decay of the more unstable thromboxane A2 (Proc. Nat. Acad. Sci., 1975, 72, 2994) thereby enabling the separate measurement of increased isometric tension due to the TxA2 formed and the PGH2 remaining. The test compound is pre-incubated with enzyme for 5 minutes, and its ability to inhibit the thromboxane synthetase enzyme is measured as its reduction of the TxA2 component of the isometric tension.

Experiment [2] deals with T1, prostacyclin synthetase. The experiment is described as follows: Prostacyclin (PGI2) synthetase inhibition, pig aorta microsomes, rabbit aorta bioassay. Format: biochemical. The note with it: test compound pre-incubated with enzyme for 5 minutes, read-out: Molar concentration causing 50% inhibition of prostacyclin synthetase. On the procedure:
The effect of the compounds of the formula (I) on the thromboxane synthetase enzyme, and the prostacyclin synthetase and cyclooxygenase enzymes has been measured by the following in vitro enzyme assays:
2. Prostacyclin (PGI2) Synthetase
Pig aorta microsomes (Nature, 1976, 263, 663) are incubated (30 sec.: 22° C.) with PGH2 produced as in 1) and aliquots bio-assayed as in 1. […] The test compound is then pre-incubated with the enzyme for 5 minutes, and its ability to prevent the decrease in tension is measured.
The results of these tests are shown in the following Table, which gives the molar concentration of each compound which caused a 50% change in the effect of the relevant enzyme on isometric tension, i.e. caused a 50% inhibition of the action of that enzyme.

The next experiment relates to cyclo-oxygenase enzyme. The note with it: cited from earlier work.
The subject of experiment [3] is human blood platelet aggregation. The note with it: human blood platelets; cited from earlier work.
For experiment [4] the following is noted: rabbit; intravenous arachidonic acid; cited from earlier work.
Another experiment deals with aggregation of platelets. The note with it: rat, abdominal aorta; cited from earlier work.

Counter-ions that a name gives are not always drawn.

As to 15-hydroxy-arachidonic acid, on prostacyclin synthetase [1], the “prevention of the decrease in PGH2-induced tension (selective PGI2 synthetase inhibitor)” value is on record as “prevented completely”.

Regarding `N#CCCn1cc(Cn2ccnc2)c2ccccc21` [Example 1, 1-(2-Cyanoethyl)-3-(1-imidazolylmethyl)indole fumarate], the IC50 at thromboxane synthetase is 18 nM; at prostacyclin synthetase [2], 24000 nM.

In the case of `N#Cc1ccc(Cn2cc(Cn3ccnc3)c3ccccc32)cc1` [Example 4, 1-(4-Cyanobenzyl)-3-(1-imidazolylmethyl)indole], the IC50 at thromboxane synthetase is 4.8 nM; on prostacyclin synthetase [2] it was 2200 nM.

As for `CCOC(=O)c1ccc(Cn2cc(Cn3ccnc3)c3ccccc32)cc1` [Example 7, 1-(4-Ethoxycarbonylbenzyl)-3-(1-imidazolylmethyl)indole hemi-fumarate], the figures for the IC50 on thromboxane synthetase and at prostacyclin synthetase [2] were 0.16 nM and greater than 100000 nM, respectively.

`CCOC(=O)Cn1cc(Cn2ccnc2)c2ccccc21` [Example 10, 1-Ethoxycarbonylmethyl-3-(1-imidazolylmethyl)indole]: the IC50 at thromboxane synthetase is 12 nM; on prostacyclin synthetase [2], greater than 100000 nM.

Consider `O=C(O)CCn1cc(Cn2ccnc2)c2ccccc21` [Example 11, 1-(2-Carboxyethyl)-3-(1-imidazolylmethyl)indole fumarate monohydrate], for which the IC50 is 0.04 nM on thromboxane synthetase and greater than 100000 nM on prostacyclin synthetase [2].

Regarding `CC(C)c1c(Cn2ccnc2)c2ccccc2n1CCC(=O)O` [Example 13], the IC50 came to 2 nM on thromboxane synthetase and 100000 nM at prostacyclin synthetase [2].

In the case of `O=C(O)CCn1c(C2CC2)c(Cn2ccnc2)c2ccccc21` [Example 14, 1-carboxyethyl-2-cyclopropyl-3-(1-imidazolylmethyl)indole], the IC50 turned out to be 0.037 nM at thromboxane synthetase and 40000 nM on prostacyclin synthetase [2].

With `O=C(O)CCn1cc(Cn2ccnc2)c2cc(Br)ccc21` [Example 20, 5-bromo-1-(2-carboxyethyl)-3-(1-imidazolylmethyl)indole], the IC50 at prostacyclin synthetase [2] was greater than 100000 nM.

For `O=C(O)Cn1cc(Cn2ccnc2)c2ccccc21` [Example 23, 1-Carboxymethyl-3-(1-imidazolylmethyl)indole], the IC50 on thromboxane synthetase is 0.8 nM; at prostacyclin synthetase [2] it was greater than 100000 nM.

With `O=C(O)c1ccc(Cn2cc(Cn3ccnc3)c3ccccc32)cc1` [Example 24, 1-(4-Carboxybenzyl)-3-(1-imidazolylmethyl)indole], the IC50 on thromboxane synthetase was 0.16 nM; on prostacyclin synthetase [2], greater than 100000 nM.

On to `O=C(O)c1cccc(Cn2cc(Cn3ccnc3)c3ccccc32)c1` [Example 25, 1-(3-Carboxybenzyl)-3-(1-imidazolylmethyl)indole], for which the IC50 is 2.4 nM at thromboxane synthetase and greater than 100000 nM at prostacyclin synthetase [2].

As to `NC(=O)Cn1cc(Cn2ccnc2)c2ccccc21` [Example 27, 1-Carbamoylmethyl-3-(1-imidazolylmethyl)indole], the values for the IC50 on thromboxane synthetase and on prostacyclin synthetase [2] were 140 nM and 100000 nM, respectively.

Consider `CC(C)c1c(Cn2ccnc2)c2ccccc2n1CCC(N)=O` [Example 28, 1-(2-Carbamoylethyl)-2-isopropyl-3-(1-imidazolylmethyl)indole], for which the IC50 stood at 6 nM on thromboxane synthetase and 70000 nM on prostacyclin synthetase [2].

As to `NC(=O)c1ccc(Cn2cc(Cn3ccnc3)c3ccccc32)cc1` [Example 38, 1-(4-Carbamoylbenzyl)-3-(1-imidazolylmethyl)indole], the IC50 on thromboxane synthetase was determined as 130 nM.

As for `c1ccc2c(c1)c(Cn1ccnc1)cn2CCc1nnn[nH]1` [Example 42, 1-[2-(5-Tetrazolyl)ethyl]-3-(1-imidazolylmethyl)indole], the IC50 on thromboxane synthetase is 0.034 nM; at prostacyclin synthetase [2], 45000 nM.

In the case of `CNC(=O)NCCCn1cc(Cn2ccnc2)c2ccccc21` [Example 46, N-Methyl-N'-[3-[3-(imidazol-1-ylmethyl)indol-1-yl]propyl]urea], on thromboxane synthetase, the IC50 amounted to 2.1 nM.

For `O=C(NCCCn1cc(Cn2ccnc2)c2ccccc21)Nc1ccccc1` [Example 47, N-Phenyl-N'-[3-[3-(imidazol-1-ylmethyl)indol-1-yl]propyl]urea], the figures for the IC50 at thromboxane synthetase and at prostacyclin synthetase [2] were 5.5 nM and 40000 nM, respectively.

Take `O=S(=O)(NCCCn1cc(Cn2ccnc2)c2ccccc21)c1ccccc1` [Example 48, 1-(3-Benzenesulphonylaminopropyl)-3-(1-imidazolylmethyl)indole]: the IC50 on thromboxane synthetase was 1 nM; on prostacyclin synthetase [2], 100000 nM.

For `CC(=O)Oc1ccccc1C(=O)O` [aspirin], in the experiment on cyclo-oxygenase enzyme, the “effect on prostacyclin and thromboxane A2 levels” value is “reduce both the prostacyclin and thromboxane A2 levels”; the “inhibition of the cyclo-oxygenase enzyme” value was “inhibit the cyclo-oxygenase enzyme”. Besides, in experiment [3], the “inhibitory activity in vitro against a variety of aggregating agents” value is “show inhibitory activity in vitro”. Moreover, in experiment [4], the “protection from the lethal effect of arachidonic acid injection” value was “protect the rabbit from the lethal effect of the injection”.

Turning to `O=C1C(CC[S+]([O-])c2ccccc2)C(=O)N(c2ccccc2)N1c1ccccc1` (centres unmarked) [sulphinpyrazone], in experiment [3], the “inhibitory activity in vitro against a variety of aggregating agents” value is given as “show inhibitory activity in vitro”. Further, the “protection from the lethal effect of arachidonic acid injection” value in experiment [4] is given as “protect the rabbit from the lethal effect of the injection”. Moreover, the “prevention of aggregation of platelets in an extra corporeal loop” value in the experiment on aggregation of platelets is given as “prevent the aggregation of platelets”.
